Patent US20210349099A1, “CANCER BIOMARKERS AND METHODS OF USE THEREOF” (X4 Pharmaceuticals, Inc., priority 2017, published 2021)

Tests used:
[1] = tested on: melanoma, renal cell carcinoma, and ovarian cancer; conditions: murine models; cited from earlier work
[2] = tested on: pancreatic adenocarcinoma; conditions: murine pancreatic adenocarcinoma; cited from earlier work
[3] = tested on: solid tumors, e.g. advanced or metastatic melanoma; assay: Biomarker findings in tumors; type: in vivo
Text: Granzyme B is associated with cell death/apoptosis mediated by cytotoxic T lymphocytes (CTLs), natural killer (NK) cells, and cytotoxic T cells. Accordingly, in some embodiments, the biomarker is an observed increase in granzyme B expression in a tumor relative to a control. In some embodiments, the cancer is a solid tumor such as advanced or metastatic melanoma. […] Accordingly, in some embodiments, the biomarker is an observed increase in CD8^+ T cells and/or CD4^+ T cells in a tumor relative to a control. In other embodiments, the biomarker is an increase in the ratio of CD8^+ T cells to Treg cells. In some embodiments, the increase is observed by immunohistochemistry or expression levels of one or both of CD8A and CD8B. In some embodiments, an increase in CD8^+ T cells and/or CD4^+ T cells or CD8^+ T cells/Treg ratio in a tumor sample from a patient who has undergone treatment with […]-001 or X4-136 correlates with an increased likelihood that the patient will benefit from continued treatment with […]-001 alone or in combination with an immunotherapeutic agent, e.g., a checkpoint inhibitor such as a PD-1 antagonist. In some embodiments, the PD-1 antagonist is selected from nivolumab and pembrolizumab, or a biosimilar or variant of such PD-1 antagonists. In some embodiments, the checkpoint inhibitor is nivolumab. In some embodiments, the checkpoint inhibitor is a nivolumab biosimilar or variant. In some embodiments, the checkpoint inhibitor is pembrolizumab. In some embodiments, the checkpoint inhibitor is a pembrolizumab biosimilar or variant. In some embodiments, the tumor is a solid tumor such as advanced or metastatic melanoma. […] In some embodiments, the biomarker is IDO1. In some embodiments, the biomarker is CXCL10. In some embodiments, the biomarker is CXCL9. In some embodiments, the biomarker is HLA-DRA. In some embodiments, the biomarker is STAT1. In some embodiments, the biomarker is IFN-γ. In some embodiments, the biomarker is two or more of IDOL, CXCL10, CXCL9, HLA-DRA, STAT1 and IFN-γ. In some embodiments, the biomarker is three or more of IDO1, CXCL10, CXCL9, HLA-DRA, STAT1 and IFN-γ. In some embodiments, the biomarker is four or more of IDOL, CXCL10, CXCL9, HLA-DRA, STAT1 and IFN-γ. In some embodiments, the biomarker is five or more of IDOL, CXCL10, CXCL9, HLA-DRA, STAT1 and IFN-γ. In some embodiments, the biomarker is all of IDOL, CXCL10, CXCL9, HLA-DRA, STAT1 and IFN-γ. In some embodiments, the biomarker is an increase of all of IDO1, CXCL10, CXCL9, HLA-DRA, STAT1 and IFN-γ. In some embodiments, an increase in one, two, three, four, five, or all of IDOL, CXCL10, CXCL9, HLA-DRA, STAT1 and IFN-γ in a tumor sample from a patient who has undergone treatment with […]-001 correlates with an increased likelihood that the patient will benefit from continued treatment with […]-001 alone or in combination with an immunotherapeutic agent, e.g., a checkpoint inhibitor such as a PD-1 antagonist. In some embodiments, the PD-1 antagonist is selected from nivolumab and pembrolizumab, or a biosimilar or variant of such PD-1 antagonists. In some embodiments, the checkpoint inhibitor is nivolumab. In some embodiments, the checkpoint inhibitor is a nivolumab biosimilar or variant. In some embodiments, the checkpoint inhibitor is pembrolizumab. In some embodiments, the checkpoint inhibitor is a pembrolizumab biosimilar or variant. In some embodiments, the tumor is a solid tumor such as advanced or metastatic melanoma. In some embodiments, the biomarker or the use thereof is one of those described in Ayers et al., Journal of Clinical Investigation 2017, 127(8), 2930-2940 [29] (“Ayers et al. (2017)”) or WO 2016/094377, each of which is hereby incorporated by reference. […] Accordingly, in some embodiments, the biomarker is maintenance or decrease of Treg levels in a tumor relative to a control. In some embodiments, the biomarker is the level of FoxP3 expression, which serves as a means to determine the Treg level. […]

B16-OVA tumors = assay: B16-OVA syngeneic melanoma tumor growth; type: in vivo, C57BL/6 mice; conditions: sixteen (16) days of treatment, regimens of Table 9
Description: B16-OVA cells (˜1×10^5) were implanted in C57BL/6 mice. Animals were evaluated periodically and when tumors attained a size of approximately 3 mm×3 mm, animals were then grouped randomly and treated for sixteen (16) days.
At the end of treatment animals were sacrificed and dissected to evaluate and sample tumor masts.

[4] = tested on: unresectable or metastatic melanoma; conditions: Phase 3 trial, P<0.001; cited from earlier work
[5] = solid tumors, e.g. advanced or metastatic melanoma

Q: Which anti-tumor activity [1] does the source give for `c1cc(CN2CCCNCCNCCCNCC2)ccc1CN1CCCNCCNCCCNCC1` [AMD3100, reference compound] here?
A: significant anti-tumor activity, including decreased metastasis and increased overall survival

Q: And the “T-cell accumulation among the cancer cells” value [2]?
A: induced rapid T-cell accumulation

Q: Which results are given for `Cc1cccnc1[C@H]1CCC[C@@H](c2ncccc2C)N1CCCCN` [X4-136]?
A: CTL signature gene expression in tumor samples or the tumor microenvironment ([3]; in vivo): increase; IFN-γ gene signature (panel of IFN-γ related genes) ([3]; in vivo): increase; PD-L1 expression in tumor samples and the tumor microenvironment ([3]; in vivo): increase; granzyme B (GZMB) expression in cancers [3, 5]: increases; levels of Treg cells [3, 5]: without significantly increasing; levels of macrophages in the tumor [3, 5]: without significantly modulating; observed numbers of CD8+ T cells and/or CD4+ T cells in cancers [3, 5]: increases; levels of the VISTA panel of biomarkers ([3]; tumor samples and the tumor microenvironment): modulate

Q: Which tumor volumes (B16-OVA tumors) does the source give for `NCCCCN(Cc1nc2ccccc2[nH]1)[C@H]1CCCc2cccnc21` [X4P] here?
A: substantially reduced tumor volumes

Q: For “Pembrolizumab: humanized IgG4 kappa monoclonal antibody that blocks the interaction between PD-1 and its ligands”, which objective response rate [4] is on record?
A: 33%

Q: Which objective response rate [4] does the source give for ipilimumab: anti-CTLA-4 antibody here?
A: 12%
